Experimental data reported in patent publication US12194078B2, “Methods and compositions related to combined treatment with anti-inflammatories and synthetic nanocarriers comprising an immunosuppressant” (Cartesian Therapeutics, Inc., priority 2017, dated 2025).
Where two headings read alike, the source gives them in different places.

Assays:
[1] = test system: patients with hyperuricemia and gout; assay: Phase 3 febuxostat trial: gout flares, first 8 weeks; type: in vivo, human; conditions: first 8 weeks with gout flare prophylaxis
Description: (§1) Further comparisons can be made with the primary branded oral uric acid lowering medication, febuxostat. In a phase 3, randomized, double-blind, multi-center trial, the safety and efficacy of febuxostat was studied over 52 weeks (Michael A. Becker, M. D., H. Ralph Schumacher, Jr., M. D., Robert L. Wortmann, M. D., Patricia A. MacDonald, B. S. N., N. P., Denise Eustace, B. A., William A. Palo, M. S., Janet Streit, M. S., and Nancy Joseph-Ridge, M. D. Febuxostat Compared with Allopurinol in Patients with Hyperuricemia and Gout. N Engl J Med 2005; 353:2450-2461Dec. 8, 2005). The comparison period for this analysis included only the first 8 weeks of that study, when gout flare prophylaxis (naproxen or colchicine) was administered. Data points were identified using a graph digitizer for FIG. 1 of the above reference. At a dose of 80 mg/day, 55 out of 255 subjects required treatment for at least one gout flare. This would be the equivalent to a flare frequency of at least 0.22 flares per patient month, and possibly more. At a dose of 120 mg/day, 90 out of 250 subjects required treatment for at least one gout flare, equating to at least a flare frequency of 0.36 flares per patient month, and possibly more.

serum uric acid (sUA) [2] = assay: Phase 3 febuxostat trial: AUC of mean sUA levels over time; type: in vivo, human; conditions: data points from graph digitizer
Description: as §1, with “The comparison period for this analysis included only the first 8 weeks of that study, when gout flare prophylaxis (naproxen or colchicine) was administered.” left out

[3] = Combination assessment of flare frequency and AUC of mean sUA; type: in vivo, human
Procedure: Anti-drug antibodies (ADAs) can be a complication with treatment with soluble therapeutic proteins, such as the possibility of reduced efficacy. In addition, with treatment of subjects with conditions associate with gout, gout flares can increase when efficacy is increased. […] Specifically, a combination assessment of glare frequency as well as the area under the curve of mean sUA (serum uric acid) levels over time was performed. The finding of both improved efficacy and reduced gout flares was surprising with the SEL-212 study drug and anti-inflammatory treatment.
The tabulated data outlining the comparison in flare frequency between the different medications alongside their efficacy in reducing serum uric acid (sUA) is compiled in Table 4.
In addition, a combination assessment of glare frequency as well as the area under the cruve of mean sUA levels over time show both improved efficacy and reduced gout flares. […] Here, with the SEL-212 study drug and anti-inflammatory treatment, both efficacy and gout flare reduction can be achieved.

[4] = test system: patients with hyperuricemia and gout; conditions: first 8 weeks, cited from earlier work
serum uric acid (sUA) [5] = assay: Phase 3 pegloticase trials: AUC of mean sUA levels over time; type: in vivo, human; parameters: AUC of mean sUA levels, responders / AUC of mean sUA levels, non-responders: unit not given beside the values; conditions: for Area Under Curve of Mean sUA Levels Over Time Up to 20 Weeks: combined weighted average for responders and non-responders, digitized, extrapolated to 20 weeks
Procedure: For comparison, the Phase 3 pegloticase trials (John S. Sundy, MD, PhD; Herbert S. B. Baraf, MD; Robert A. Yood, MD; et al. Efficacy and Tolerability of Pegloticase for the Treatment of Chronic Gout in Patients Refractory to Conventional Treatment: Two Randomized Controlled Trials. JAMA. 2011; 306(7):711-720) were examined to determine the number of flares per month and the area under the curve (AUC) of mean serum uric acid (sUA) levels over time (up to 20 weeks). Subjects were given 0.6 mg of colchicine once or twice daily (or a nonsteroidal anti-inflammatory drug) one week before first infusion, which continued throughout the study. The study also included prophylaxis against infusion related reactions (IRs) before each infusion. The subjects were administered oral fexofenadine (60 mg) the evening before and again immediately before, the infusion, as well as acetaminophen 1000 mg) and IV hydrocortisone (200 mg) immediately before the infusion. Data points were obtained from Table 2, which presents the biweekly/monthly flare per patient month. Data points were also identified using a graph digitizer for FIG. 2 of the aforementioned reference. The data was extrapolated to 20 weeks. The AUC of mean sUA levels over time (up to 20 weeks) and the flares per patient month were calculated using the combined weighted average for responders and non-responders for sUA AUC. […] Similar calculations were performed to obtain the monthly data.

uric acid = conditions: cited from earlier work
ADAs = conditions: all KRYSTEXXA-treated subjects; cited from earlier work
[6] = test system: patients with chronic gout refractory to conventional treatment; conditions: cited from earlier work
[7] = monthly dosing, four weeks after first dose

## Cc1nc(-c2ccc(OCC(C)C)c(C#N)c2)sc1C(=O)O [Febuxostat, febuxostat]
[1]; Febuxostat 80 mg/day
  Flares per patient month: 0.22 flares per patient month
[1]; Febuxostat 80 mg/day, listed as febuxostat
  Flares per patient month: at least 0.22 flares per patient month
[1]; Febuxostat 120 mg/day
  Flares per patient month: 0.36 flares per patient month
[1]; Febuxostat 120 mg/day, listed as febuxostat
  Flares per patient month: ≥ 0.36 flares per patient month
Serum uric acid (sUA) [2]; Febuxostat 80 mg/day
  Area Under Curve of Mean sUA Levels Over Time Up to 20 Weeks: 108.3
Serum uric acid (sUA) [2]; Febuxostat 120 mg/day
  Area Under Curve of Mean sUA Levels Over Time Up to 20 Weeks: 93.4
[3]; Febuxostat 80 mg/day
  Flares per patient month * AUC: 23.83
[3]; Febuxostat 120 mg/day
  Flares per patient month * AUC: 33.62
[4]; Febuxostat 80 mg/day
  subjects that required treatment for at least one gout flare: 55 out of 255
[4]; Febuxostat 120 mg/day
  subjects that required treatment for at least one gout flare: 90 out of 250

## Pegloticase
Serum uric acid (sUA) [5]; Pegloticase biweekly group, non-responders, cut to 20 weeks
  AUC of mean sUA levels, non-responders: 102.0
Serum uric acid (sUA) [5]; Pegloticase biweekly group, responders
  AUC of mean sUA levels, responders: 12.3
Serum uric acid (sUA) [5]; Pegloticase biweekly
  Area Under Curve of Mean sUA Levels Over Time Up to 20 Weeks: 64.0
Serum uric acid (sUA) [5]; Pegloticase monthly
  Area Under Curve of Mean sUA Levels Over Time Up to 20 Weeks: 94.4
[3]; Pegloticase biweekly
  Flares per patient month * AUC: 33.28
[3]; Pegloticase monthly
  Flares per patient month * AUC: 66.05
Uric acid; monthly dosing cohorts
  non-responders, share of subjects: 65%
  subjects classified as responders (uric acid below 6 mg/dl for 80% of the time at months three and six): 35%
Uric acid; [7]
  mean uric acid levels at four weeks, non-responders: above 6 mg/dl
  mean uric acid levels at four weeks, responders: above 4 mg/dl
ADAs
  treated subjects that developed ADAs: 89%
[6]; Pegloticase biweekly
  Flares per patient month: 0.52 flares per patient month
[6]; Pegloticase monthly
  Flares per patient month: 0.70 flares per patient month
